Laboratory results taken from publication PMC12049414 (Nature Communications, 2025).

Target: T1, human vesicular polyamine transporter (hVPAT) (Homo sapiens, UniProt Q6NT16)
T1 sequence (Q6NT16 1-456): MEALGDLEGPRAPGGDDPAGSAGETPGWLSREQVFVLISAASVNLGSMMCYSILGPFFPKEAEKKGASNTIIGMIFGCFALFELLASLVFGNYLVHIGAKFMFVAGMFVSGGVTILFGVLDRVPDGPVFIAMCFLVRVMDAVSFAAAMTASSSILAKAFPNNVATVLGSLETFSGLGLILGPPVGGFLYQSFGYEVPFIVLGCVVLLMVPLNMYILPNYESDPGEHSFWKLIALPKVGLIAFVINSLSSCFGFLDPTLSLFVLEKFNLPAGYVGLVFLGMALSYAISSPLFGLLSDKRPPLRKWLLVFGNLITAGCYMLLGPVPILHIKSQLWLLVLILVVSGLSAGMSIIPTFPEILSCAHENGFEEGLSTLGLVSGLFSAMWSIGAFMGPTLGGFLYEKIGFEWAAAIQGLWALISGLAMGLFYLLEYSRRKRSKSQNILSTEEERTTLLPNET
Experiment: cryo-EM structure at […] Å
Format: biochemical

Compound `COc1cc2c(cc1OC)C1CC(=O)C(CC(C)C)CN1CC2` (stereo not shown) [TBZ, tetrabenazine] has a Ki of 2 µM.
